Tests used:
Test in all cases: KINOMEscan competition binding
Conditions in all cases: compound 10.0 µM
ADCK4 (human) = ADCK4 (human) (UniProt Q96D53)
ALK (human) = ALK (human) (UniProt Q9UM73)
BMPR2 (human) = BMPR2 (human) (UniProt Q13873)
CAMK2B (human) = CAMK2B (human) (UniProt Q13554)
CDC42BPB (human) = CDC42BPB (human) (UniProt Q9Y5S2)
CDK5 (human) = CDK5 (human) (UniProt Q00535)
CDK7 (human) = CDK7 (human) (UniProt P50613)
CSNK1G1 (human) = CSNK1G1 (human) (UniProt Q9HCP0)
DCLK2 (human) = DCLK2 (human) (UniProt Q8N568)
DYRK1B (human) = DYRK1B (human) (UniProt Q9Y463)
[1] = test system: EGFR (human), P00533 [752-759 del]
[2] = test system: EGFR (human), P00533 [T790M/L858R]
EPHA6 (human) = EPHA6 (human) (UniProt Q9UF33)
EPHB6 (human) = EPHB6 (human) (UniProt O15197)
GAK (human) = GAK (human) (UniProt O14976)
GRK1 (human) = GRK1 (human) (UniProt Q15835)
HUNK (human) = HUNK (human) (UniProt P57058)
LCK (human) = LCK (human) (UniProt P06239)
MAK (human) = MAK (human) (UniProt P20794)
MAP3K1 (human) = MAP3K1 (human) (UniProt Q13233)
MAP3K7 (human) = MAP3K7 (human) (UniProt O43318)
MAPK10 (human) = MAPK10 (human) (UniProt P53779)
MARK2 (human) = MARK2 (human) (UniProt Q7KZI7)
MELK (human) = MELK (human) (UniProt Q14680)
MERTK (human) = MERTK (human) (UniProt Q12866)
MKNK2 (human) = MKNK2 (human) (UniProt Q9HBH9)
NTRK1 (human) = NTRK1 (human) (UniProt P04629)
NTRK2 (human) = NTRK2 (human) (UniProt Q16620)
PAK4 (human) = PAK4 (human) (UniProt O96013)
PKN1 (human) = PKN1 (human) (UniProt Q16512)
PKN2 (human) = PKN2 (human) (UniProt Q16513)
PRKCD (human) = PRKCD (human) (UniProt Q05655)
PRKX (human) = PRKX (human) (UniProt P51817)
PTK6 (human) = PTK6 (human) (UniProt Q13882)
RAF1 (human) = RAF1 (human) (UniProt P04049)
ROS1 (human) = ROS1 (human) (UniProt P08922)
RPS6KA5 KD1 (human) = RPS6KA5 KD1 (human) (UniProt O75582)
SIK2 (human) = SIK2 (human) (UniProt Q9H0K1)
STK11 (human) = STK11 (human) (UniProt Q15831)
YES1 (human) = YES1 (human) (UniProt P07947)

SIK2 (human), sequence (Q9H0K1 whole entry, looked up): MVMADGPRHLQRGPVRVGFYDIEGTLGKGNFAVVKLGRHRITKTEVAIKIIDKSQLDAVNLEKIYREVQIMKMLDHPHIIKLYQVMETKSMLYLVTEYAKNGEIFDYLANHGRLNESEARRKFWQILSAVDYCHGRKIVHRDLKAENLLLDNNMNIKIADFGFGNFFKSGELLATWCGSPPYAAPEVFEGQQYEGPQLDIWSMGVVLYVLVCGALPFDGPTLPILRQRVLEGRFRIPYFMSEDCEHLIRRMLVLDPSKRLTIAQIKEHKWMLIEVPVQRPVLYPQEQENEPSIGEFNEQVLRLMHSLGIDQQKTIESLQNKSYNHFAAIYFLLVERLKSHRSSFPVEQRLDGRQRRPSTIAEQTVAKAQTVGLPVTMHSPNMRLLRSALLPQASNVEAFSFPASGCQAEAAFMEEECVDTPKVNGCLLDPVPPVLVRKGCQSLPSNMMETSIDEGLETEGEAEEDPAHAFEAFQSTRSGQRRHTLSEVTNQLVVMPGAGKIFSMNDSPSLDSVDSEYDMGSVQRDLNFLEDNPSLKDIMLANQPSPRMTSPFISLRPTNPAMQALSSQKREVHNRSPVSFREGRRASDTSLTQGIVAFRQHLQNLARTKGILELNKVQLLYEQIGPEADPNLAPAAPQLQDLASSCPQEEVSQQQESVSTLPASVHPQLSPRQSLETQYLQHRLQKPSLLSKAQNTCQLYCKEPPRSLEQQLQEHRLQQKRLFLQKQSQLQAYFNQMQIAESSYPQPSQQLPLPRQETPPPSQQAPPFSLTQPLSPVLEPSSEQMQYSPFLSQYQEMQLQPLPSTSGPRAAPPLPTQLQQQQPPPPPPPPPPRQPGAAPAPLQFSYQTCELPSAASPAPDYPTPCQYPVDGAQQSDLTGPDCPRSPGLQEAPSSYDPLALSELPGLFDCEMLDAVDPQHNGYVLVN
CDK7 (human), sequence (P50613 whole entry, looked up): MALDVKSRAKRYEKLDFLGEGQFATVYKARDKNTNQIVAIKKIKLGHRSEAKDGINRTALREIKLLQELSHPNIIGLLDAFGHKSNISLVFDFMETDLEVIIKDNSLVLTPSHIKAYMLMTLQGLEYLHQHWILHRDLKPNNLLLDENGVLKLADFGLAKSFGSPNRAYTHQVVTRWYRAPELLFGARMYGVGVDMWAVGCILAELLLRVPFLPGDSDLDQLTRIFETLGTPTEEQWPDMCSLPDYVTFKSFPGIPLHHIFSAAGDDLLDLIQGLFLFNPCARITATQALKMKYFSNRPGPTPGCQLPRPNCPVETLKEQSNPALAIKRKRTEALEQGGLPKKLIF
STK11 (human), sequence (Q15831 whole entry, looked up): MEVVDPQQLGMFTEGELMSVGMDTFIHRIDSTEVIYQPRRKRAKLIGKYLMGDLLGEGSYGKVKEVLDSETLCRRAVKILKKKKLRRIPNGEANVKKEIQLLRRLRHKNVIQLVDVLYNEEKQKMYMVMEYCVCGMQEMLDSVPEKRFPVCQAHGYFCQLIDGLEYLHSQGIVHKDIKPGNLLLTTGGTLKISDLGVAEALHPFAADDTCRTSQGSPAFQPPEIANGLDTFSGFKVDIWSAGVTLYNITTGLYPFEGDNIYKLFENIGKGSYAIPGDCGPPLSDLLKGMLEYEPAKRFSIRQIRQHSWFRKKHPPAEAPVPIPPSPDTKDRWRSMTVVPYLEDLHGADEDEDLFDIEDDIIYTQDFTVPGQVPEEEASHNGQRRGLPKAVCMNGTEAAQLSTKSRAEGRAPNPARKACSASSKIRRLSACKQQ
EPHA6 (human), sequence (Q9UF33 whole entry, looked up): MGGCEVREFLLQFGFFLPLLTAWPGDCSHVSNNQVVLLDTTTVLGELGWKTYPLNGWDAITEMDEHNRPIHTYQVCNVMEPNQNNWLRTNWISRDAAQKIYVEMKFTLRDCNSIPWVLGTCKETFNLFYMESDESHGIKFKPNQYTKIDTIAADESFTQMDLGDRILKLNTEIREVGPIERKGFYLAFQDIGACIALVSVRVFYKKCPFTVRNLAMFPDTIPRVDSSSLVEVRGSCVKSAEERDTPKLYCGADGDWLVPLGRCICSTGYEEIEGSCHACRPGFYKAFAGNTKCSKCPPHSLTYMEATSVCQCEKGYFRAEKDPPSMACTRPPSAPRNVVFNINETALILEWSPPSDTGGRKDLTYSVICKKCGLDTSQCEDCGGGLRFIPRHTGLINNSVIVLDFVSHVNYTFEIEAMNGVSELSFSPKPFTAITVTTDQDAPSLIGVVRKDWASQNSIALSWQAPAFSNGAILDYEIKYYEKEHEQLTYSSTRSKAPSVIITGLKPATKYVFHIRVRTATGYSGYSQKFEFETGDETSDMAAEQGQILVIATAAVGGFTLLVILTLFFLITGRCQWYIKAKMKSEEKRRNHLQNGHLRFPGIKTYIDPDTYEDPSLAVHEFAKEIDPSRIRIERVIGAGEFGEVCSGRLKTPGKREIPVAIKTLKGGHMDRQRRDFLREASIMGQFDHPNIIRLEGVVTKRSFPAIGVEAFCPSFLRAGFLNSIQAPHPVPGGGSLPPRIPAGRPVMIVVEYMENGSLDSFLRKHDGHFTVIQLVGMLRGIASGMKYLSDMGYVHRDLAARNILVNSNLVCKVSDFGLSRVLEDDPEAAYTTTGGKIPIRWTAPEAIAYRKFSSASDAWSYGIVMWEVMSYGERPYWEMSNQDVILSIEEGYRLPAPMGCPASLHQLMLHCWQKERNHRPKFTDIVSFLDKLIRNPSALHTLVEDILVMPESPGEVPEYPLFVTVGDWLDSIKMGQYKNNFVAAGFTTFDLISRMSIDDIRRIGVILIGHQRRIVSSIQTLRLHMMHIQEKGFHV
BMPR2 (human), sequence (Q13873 whole entry, looked up): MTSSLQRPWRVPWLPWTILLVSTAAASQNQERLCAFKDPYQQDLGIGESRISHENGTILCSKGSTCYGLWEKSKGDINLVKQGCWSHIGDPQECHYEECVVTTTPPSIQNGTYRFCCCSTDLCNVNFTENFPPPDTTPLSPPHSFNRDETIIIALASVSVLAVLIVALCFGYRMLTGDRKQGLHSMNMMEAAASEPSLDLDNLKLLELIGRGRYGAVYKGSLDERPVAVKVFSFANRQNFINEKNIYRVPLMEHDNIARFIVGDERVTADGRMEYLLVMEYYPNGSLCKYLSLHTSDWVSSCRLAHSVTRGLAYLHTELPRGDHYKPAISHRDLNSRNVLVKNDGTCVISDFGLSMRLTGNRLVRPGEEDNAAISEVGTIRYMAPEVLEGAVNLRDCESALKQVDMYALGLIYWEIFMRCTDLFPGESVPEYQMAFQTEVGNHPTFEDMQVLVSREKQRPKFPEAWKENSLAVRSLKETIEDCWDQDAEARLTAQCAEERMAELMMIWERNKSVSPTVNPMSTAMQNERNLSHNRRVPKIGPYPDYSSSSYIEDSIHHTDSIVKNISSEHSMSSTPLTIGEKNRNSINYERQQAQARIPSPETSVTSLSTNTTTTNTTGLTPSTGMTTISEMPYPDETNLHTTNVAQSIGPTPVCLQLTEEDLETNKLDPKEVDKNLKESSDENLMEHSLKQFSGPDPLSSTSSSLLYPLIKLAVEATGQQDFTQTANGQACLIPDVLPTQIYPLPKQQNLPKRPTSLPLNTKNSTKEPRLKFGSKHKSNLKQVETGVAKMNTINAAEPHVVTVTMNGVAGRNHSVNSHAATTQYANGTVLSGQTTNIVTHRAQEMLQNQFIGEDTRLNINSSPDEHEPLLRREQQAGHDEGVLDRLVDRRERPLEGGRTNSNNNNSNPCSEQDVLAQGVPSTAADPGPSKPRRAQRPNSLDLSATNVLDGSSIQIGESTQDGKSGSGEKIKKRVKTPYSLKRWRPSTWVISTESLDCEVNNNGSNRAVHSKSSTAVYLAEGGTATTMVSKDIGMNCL
GRK1 (human), sequence (Q15835 whole entry, looked up): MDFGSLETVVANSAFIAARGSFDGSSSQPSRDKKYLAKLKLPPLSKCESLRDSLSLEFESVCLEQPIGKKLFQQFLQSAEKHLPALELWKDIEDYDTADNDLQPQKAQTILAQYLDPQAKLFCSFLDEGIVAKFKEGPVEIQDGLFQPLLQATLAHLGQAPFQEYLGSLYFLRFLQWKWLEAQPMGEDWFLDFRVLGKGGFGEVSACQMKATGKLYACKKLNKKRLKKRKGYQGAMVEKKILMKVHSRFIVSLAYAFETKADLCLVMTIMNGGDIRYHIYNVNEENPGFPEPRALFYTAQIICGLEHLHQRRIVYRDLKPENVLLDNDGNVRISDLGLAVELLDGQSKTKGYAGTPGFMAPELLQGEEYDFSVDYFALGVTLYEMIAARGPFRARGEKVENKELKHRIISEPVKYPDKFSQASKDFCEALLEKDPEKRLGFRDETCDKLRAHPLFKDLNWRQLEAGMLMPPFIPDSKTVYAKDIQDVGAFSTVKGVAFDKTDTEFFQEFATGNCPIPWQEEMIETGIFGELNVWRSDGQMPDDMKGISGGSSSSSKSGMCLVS
CAMK2B (human), sequence (Q13554 whole entry, looked up): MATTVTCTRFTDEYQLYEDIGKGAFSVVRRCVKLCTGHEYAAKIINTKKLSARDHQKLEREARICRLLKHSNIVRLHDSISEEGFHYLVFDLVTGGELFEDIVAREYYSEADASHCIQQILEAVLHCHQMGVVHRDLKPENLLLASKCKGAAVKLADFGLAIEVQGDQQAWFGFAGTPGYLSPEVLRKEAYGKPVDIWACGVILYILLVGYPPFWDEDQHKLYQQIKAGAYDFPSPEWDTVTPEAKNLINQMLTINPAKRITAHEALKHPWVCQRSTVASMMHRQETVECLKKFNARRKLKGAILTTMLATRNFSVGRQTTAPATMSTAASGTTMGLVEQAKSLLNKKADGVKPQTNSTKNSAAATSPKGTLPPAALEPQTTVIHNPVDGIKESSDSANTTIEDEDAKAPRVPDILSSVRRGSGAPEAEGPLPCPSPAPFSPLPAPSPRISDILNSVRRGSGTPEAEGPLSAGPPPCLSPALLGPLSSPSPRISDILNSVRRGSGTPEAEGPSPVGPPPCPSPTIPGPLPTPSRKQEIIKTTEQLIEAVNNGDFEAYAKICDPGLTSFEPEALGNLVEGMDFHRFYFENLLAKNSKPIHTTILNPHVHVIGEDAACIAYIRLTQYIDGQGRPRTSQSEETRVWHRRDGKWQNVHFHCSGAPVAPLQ

NC(=O)Nc1cc(-c2cccc(F)c2)sc1C(=O)N[C@@H]1CCCNC1
kinase still bound, per cent of control (ADCK4 (human)): 55%
kinase still bound, per cent of control (ALK (human)): 0.05%
kinase still bound, per cent of control (BMPR2 (human)): 3.4%
kinase still bound, per cent of control (CAMK2B (human)): 19%
kinase still bound, per cent of control (CDC42BPB (human)): 74%
kinase still bound, per cent of control (CDK5 (human)): 100%
kinase still bound, per cent of control (CDK7 (human)): 4.9%
kinase still bound, per cent of control (CSNK1G1 (human)): 7.6%
kinase still bound, per cent of control (DCLK2 (human)): 2.4%
kinase still bound, per cent of control (DYRK1B (human)): 1.8%
kinase still bound, per cent of control [1]: 2.4%
kinase still bound, per cent of control [2]: 5%
kinase still bound, per cent of control (EPHA6 (human)): 8.2%
kinase still bound, per cent of control (EPHB6 (human)): 50%
kinase still bound, per cent of control (GAK (human)): 2.9%
kinase still bound, per cent of control (GRK1 (human)): 0.6%
kinase still bound, per cent of control (HUNK (human)): 68%
kinase still bound, per cent of control (LCK (human)): 0%
kinase still bound, per cent of control (MAK (human)): 100%
kinase still bound, per cent of control (MAP3K1 (human)): 51%
kinase still bound, per cent of control (MAP3K7 (human)): 0%
kinase still bound, per cent of control (MAPK10 (human)): 63%
kinase still bound, per cent of control (MARK2 (human)): 0.9%
kinase still bound, per cent of control (MELK (human)): 1.4%
kinase still bound, per cent of control (MERTK (human)): 0.05%
kinase still bound, per cent of control (MKNK2 (human)): 0%
kinase still bound, per cent of control (NTRK1 (human)): 0%
kinase still bound, per cent of control (NTRK2 (human)): 0.35%
kinase still bound, per cent of control (PAK4 (human)): 1.2%
kinase still bound, per cent of control (PKN1 (human)): 0%
kinase still bound, per cent of control (PKN2 (human)): 38%
kinase still bound, per cent of control (PRKCD (human)): 0.65%
kinase still bound, per cent of control (PRKX (human)): 0.7%
kinase still bound, per cent of control (PTK6 (human)): 1.4%
kinase still bound, per cent of control (RAF1 (human)): 100%
kinase still bound, per cent of control (ROS1 (human)): 2%
kinase still bound, per cent of control (RPS6KA5 KD1 (human)): 49%
kinase still bound, per cent of control (SIK2 (human)): 2.6%
kinase still bound, per cent of control (STK11 (human)): 4.8%
kinase still bound, per cent of control (YES1 (human)): 0.2%

O=C1NC(=O)/C(=C/c2ccc3nccc(-c4ccncc4)c3c2)S1
kinase still bound, per cent of control (ADCK4 (human)): 35%
kinase still bound, per cent of control (ALK (human)): 25%
kinase still bound, per cent of control (BMPR2 (human)): 100%
kinase still bound, per cent of control (CAMK2B (human)): 9.6%
kinase still bound, per cent of control (CDC42BPB (human)): 66%
kinase still bound, per cent of control (CDK5 (human)): 82%
kinase still bound, per cent of control (CDK7 (human)): 1.7%
kinase still bound, per cent of control (CSNK1G1 (human)): 20%
kinase still bound, per cent of control (DCLK2 (human)): 91%
kinase still bound, per cent of control (DYRK1B (human)): 1.2%
kinase still bound, per cent of control [1]: 95%
kinase still bound, per cent of control [2]: 82%
kinase still bound, per cent of control (EPHA6 (human)): 83%
kinase still bound, per cent of control (EPHB6 (human)): 39%
kinase still bound, per cent of control (GAK (human)): 0%
kinase still bound, per cent of control (GRK1 (human)): 22%
kinase still bound, per cent of control (HUNK (human)): 59%
kinase still bound, per cent of control (LCK (human)): 62%
kinase still bound, per cent of control (MAK (human)): 100%
kinase still bound, per cent of control (MAP3K1 (human)): 60%
kinase still bound, per cent of control (MAP3K7 (human)): 62%
kinase still bound, per cent of control (MAPK10 (human)): 26%
kinase still bound, per cent of control (MARK2 (human)): 74%
kinase still bound, per cent of control (MELK (human)): 8.6%
kinase still bound, per cent of control (MERTK (human)): 14%
kinase still bound, per cent of control (MKNK2 (human)): 49%
kinase still bound, per cent of control (NTRK1 (human)): 78%
kinase still bound, per cent of control (NTRK2 (human)): 73%
kinase still bound, per cent of control (PAK4 (human)): 75%
kinase still bound, per cent of control (PKN1 (human)): 56%
kinase still bound, per cent of control (PKN2 (human)): 31%
kinase still bound, per cent of control (PRKCD (human)): 20%
kinase still bound, per cent of control (PRKX (human)): 19%
kinase still bound, per cent of control (PTK6 (human)): 87%
kinase still bound, per cent of control (RAF1 (human)): 47%
kinase still bound, per cent of control (ROS1 (human)): 78%
kinase still bound, per cent of control (RPS6KA5 KD1 (human)): 100%
kinase still bound, per cent of control (SIK2 (human)): 100%
kinase still bound, per cent of control (STK11 (human)): 12%
kinase still bound, per cent of control (YES1 (human)): 84%

CN(C)C/C=C/C(=O)Nc1ccc(C(=O)Nc2cccc(Nc3nccc(-c4cccnc4)n3)c2)cc1
kinase still bound, per cent of control (ADCK4 (human)): 98%
kinase still bound, per cent of control (ALK (human)): 100%
kinase still bound, per cent of control (BMPR2 (human)): 100%
kinase still bound, per cent of control (CAMK2B (human)): 60%
kinase still bound, per cent of control (CDC42BPB (human)): 100%
kinase still bound, per cent of control (CDK5 (human)): 100%
kinase still bound, per cent of control (CDK7 (human)): 3.2%
kinase still bound, per cent of control (CSNK1G1 (human)): 0.5%
kinase still bound, per cent of control (DCLK2 (human)): 100%
kinase still bound, per cent of control (DYRK1B (human)): 24%
kinase still bound, per cent of control [1]: 88%
kinase still bound, per cent of control [2]: 100%
kinase still bound, per cent of control (EPHA6 (human)): 90%
kinase still bound, per cent of control (EPHB6 (human)): 3.9%
kinase still bound, per cent of control (GAK (human)): 3.6%
kinase still bound, per cent of control (GRK1 (human)): 98%
kinase still bound, per cent of control (HUNK (human)): 69%
kinase still bound, per cent of control (LCK (human)): 100%
kinase still bound, per cent of control (MAK (human)): 100%
kinase still bound, per cent of control (MAP3K1 (human)): 100%
kinase still bound, per cent of control (MAP3K7 (human)): 9.2%
kinase still bound, per cent of control (MAPK10 (human)): 1.3%
kinase still bound, per cent of control (MARK2 (human)): 73%
kinase still bound, per cent of control (MELK (human)): 58%
kinase still bound, per cent of control (MERTK (human)): 100%
kinase still bound, per cent of control (MKNK2 (human)): 7.3%
kinase still bound, per cent of control (NTRK1 (human)): 60%
kinase still bound, per cent of control (NTRK2 (human)): 69%
kinase still bound, per cent of control (PAK4 (human)): 83%
kinase still bound, per cent of control (PKN1 (human)): 95%
kinase still bound, per cent of control (PKN2 (human)): 79%
kinase still bound, per cent of control (PRKCD (human)): 100%
kinase still bound, per cent of control (PRKX (human)): 100%
kinase still bound, per cent of control (PTK6 (human)): 100%
kinase still bound, per cent of control (RAF1 (human)): 100%
kinase still bound, per cent of control (ROS1 (human)): 76%
kinase still bound, per cent of control (RPS6KA5 KD1 (human)): 100%
kinase still bound, per cent of control (SIK2 (human)): 90%
kinase still bound, per cent of control (STK11 (human)): 83%
kinase still bound, per cent of control (YES1 (human)): 100%
